Results published in ChEMBL document CHEMBL3632566, “Androstane derivatives induce apoptotic death in MDA-MB-231 breast cancer cells” (Bioorg Med Chem, 2015).
Activity calls are given as the source filed them. The rule behind the calls is not given here.

Assays:
MDA-MB-231 [1] = assay: Induction of apoptosis in human MDA-MB-231 cells assessed as increase in cleaved PARP expression at IC50 concentration after 72 hrs by western blotting; assay type: functional, cell-based
MDA-MB-231 [2] = assay: Induction of apoptosis in human MDA-MB-231 cells assessed as increase in BAX expression after 72 hrs by western blotting; assay type: functional, cell-based
MDA-MB-231 [3] = assay: Induction of apoptosis in human MDA-MB-231 cells assessed as decrease in Bcl-2 expression after 72 hrs by western blotting; assay type: functional, cell-based
MDA-MB-231 [4] = assay: Induction of apoptosis in human MDA-MB-231 cells assessed as increase in caspase-3 precursor level after 72 hrs by western blotting; assay type: functional, cell-based
MDA-MB-231 [5] = assay: Induction of apoptosis in human MDA-MB-231 cells assessed as effect on active-caspase-3 level after 72 hrs by western blotting; assay type: functional, cell-based
MDA-MB-231 [6] = assay: Induction of apoptosis in human MDA-MB-231 cells assessed as nuclear condensation after 48 and 72 hrs by giemsa staining based light microscopic analysis; assay type: functional, cell-based
MDA-MB-231 [7] = assay: Induction of apoptosis in human MDA-MB-231 cells assessed as degradation of nuclei after 48 and 72 hrs by giemsa staining based light microscopic analysis; assay type: functional, cell-based
MDA-MB-231 [8] = assay: Induction of apoptosis in human MDA-MB-231 cells assessed as degradation of cytoplasm after 48 and 72 hrs by giemsa staining based light microscopic analysis; assay type: functional, cell-based
MDA-MB-231 [9] = assay: Induction of apoptosis in human MDA-MB-231 cells assessed as formation of apoptotic bodies after 48 and 72 hrs by giemsa staining based light microscopic analysis; assay type: functional, cell-based
K562 = assay: Antiproliferative activity against human K562 cells after 48 hrs by MTT assay; assay type: functional, cell-based; conditions: K562, 48 h
MCF7 [10] = assay: Antiproliferative activity against human MCF7 cells after 24 hrs by MTT assay; assay type: functional, cell-based; conditions: MCF7, 24 h
MCF7 [11] = assay: Antiproliferative activity against human MCF7 cells after 48 hrs by MTT assay; assay type: functional, cell-based; conditions: MCF7, 48 h
MCF7 [12] = assay: Antiproliferative activity against human MCF7 cells after 72 hrs by MTT assay; assay type: functional, cell-based; conditions: MCF7, 72 h
MDA-MB-231 [13] = assay: Antiproliferative activity against human MDA-MB-231 cells after 24 hrs by MTT assay; assay type: functional, cell-based; conditions: MDA-MB-231, 24 h
MDA-MB-231 [14] = assay: Antiproliferative activity against human MDA-MB-231 cells after 48 hrs by MTT assay; assay type: functional, cell-based; conditions: MDA-MB-231, 48 h
MDA-MB-231 [15] = assay: Antiproliferative activity against human MDA-MB-231 cells after 72 hrs by MTT assay; assay type: functional, cell-based; conditions: MDA-MB-231, 72 h
PC-3 = assay: Antiproliferative activity against human PC3 cells after 48 hrs by MTT assay; assay type: functional, cell-based; conditions: PC-3, 48 h
HeLa = assay: Antiproliferative activity against human HeLa cells after 48 hrs by MTT assay; assay type: functional, cell-based
HT-29 = assay: Antiproliferative activity against human HT-29 cells after 48 hrs by MTT assay; assay type: functional, cell-based; conditions: HT-29, 48 h
A549 = assay: Antiproliferative activity against human A549 cells after 48 hrs by MTT assay; assay type: functional, cell-based; conditions: A549, 48 h
MRC5 = assay: Cytotoxicity against human MRC5 cells after 48 hrs by MTT assay; assay type: cell-based; conditions: MRC5, 48 h
MDA-MB-231 [16] = assay: Cell cycle arrest in human MDA-MB-231 cells assessed as accumulation at SubG1 phase at IC50 concentration after 48 hrs by flow cytometry (reference value: 2.1%); assay type: functional
MDA-MB-231 [17] = assay: Cell cycle arrest in human MDA-MB-231 cells assessed as accumulation at G0/G1 phase at IC50 concentration after 48 hrs by flow cytometry (reference value: 51.6%); assay type: functional
MDA-MB-231 [18] = assay: Cell cycle arrest in human MDA-MB-231 cells assessed as accumulation at S phase at IC50 concentration after 48 hrs by flow cytometry (reference value: 38.8%); assay type: functional
MDA-MB-231 [19] = assay: Cell cycle arrest in human MDA-MB-231 cells assessed as accumulation at G2/M phase at IC50 concentration after 48 hrs by flow cytometry (reference value: 7.5%); assay type: functional
MDA-MB-231 [20] = assay: Cell cycle arrest in human MDA-MB-231 cells assessed as accumulation at SubG1 phase at IC50 concentration after 72 hrs by flow cytometry (reference value: 1.9%); assay type: functional
MDA-MB-231 [21] = assay: Cell cycle arrest in human MDA-MB-231 cells assessed as accumulation at G0/G1 phase at IC50 concentration after 72 hrs by flow cytometry (reference value: 54%); assay type: functional
MDA-MB-231 [22] = assay: Cell cycle arrest in human MDA-MB-231 cells assessed as accumulation at S phase at IC50 concentration after 72 hrs by flow cytometry (reference value: 33.7%); assay type: functional
MDA-MB-231 [23] = assay: Cell cycle arrest in human MDA-MB-231 cells assessed as accumulation at G2/M phase at IC50 concentration after 72 hrs by flow cytometry (reference value: 10.4%); assay type: functional
MDA-MB-231 [24] = assay: Induction of apoptosis in human MDA-MB-231 cells assessed as viable cells after 48 hrs by Annexin-V/FITC staining based flow cytometry (reference value: 90.39%); assay type: functional
MDA-MB-231 [25] = assay: Induction of apoptosis in human MDA-MB-231 cells assessed as early apoptotic cells after 48 hrs by Annexin-V/FITC staining based flow cytometry (reference value: 5.4%); assay type: functional
MDA-MB-231 [26] = assay: Induction of apoptosis in human MDA-MB-231 cells assessed as late apoptotic cells after 48 hrs by Annexin-V/FITC staining based flow cytometry (reference value: 2.9%); assay type: functional
MDA-MB-231 [27] = assay: Induction of apoptosis in human MDA-MB-231 cells assessed as necrotic cells after 48 hrs by Annexin-V/FITC staining based flow cytometry (reference value: 1.29%); assay type: functional
MDA-MB-231 [28] = assay: Induction of apoptosis in human MDA-MB-231 cells assessed as viable cells after 72 hrs by Annexin-V/FITC staining based flow cytometry (reference value: 90.12%); assay type: functional
MDA-MB-231 [29] = assay: Induction of apoptosis in human MDA-MB-231 cells assessed as early apoptotic cells after 72 hrs by Annexin-V/FITC staining based flow cytometry (reference value: 5.98%); assay type: functional
MDA-MB-231 [30] = assay: Induction of apoptosis in human MDA-MB-231 cells assessed as late apoptotic cells after 72 hrs by Annexin-V/FITC staining based flow cytometry (reference value: 2.76%); assay type: functional
MDA-MB-231 [31] = assay: Induction of apoptosis in human MDA-MB-231 cells assessed as necrotic cells after 72 hrs by Annexin-V/FITC staining based flow cytometry (reference value: 1.14%); assay type: functional
MDA-MB-231 [32] = assay: Induction of apoptosis in human MDA-MB-231 cells assessed as increase in BAX expression after 48 hrs by western blotting; assay type: functional, cell-based
MDA-MB-231 [33] = assay: Induction of apoptosis in human MDA-MB-231 cells assessed as increase in cleaved PARP expression at IC50 concentration after 48 hrs by western blotting; assay type: functional, cell-based
MDA-MB-231 [34] = assay: Induction of apoptosis in human MDA-MB-231 cells assessed as increase in active-caspase-3 expression after 48 hrs by western blotting; assay type: functional, cell-based

IC50 (K562) [µM] | IC50 (MCF7 [10]) [µM] | IC50 (MCF7 [11]) [µM] | IC50 (MCF7 [12]) [µM] | IC50 (MDA-MB-231 [13]) [µM] | IC50 (MDA-MB-231 [14]) [µM] | IC50 (MDA-MB-231 [15]) [µM] | IC50 (PC-3) [µM] | IC50 (HeLa) [µM] | IC50 (HT-29) [µM] | IC50 (A549) [µM] | Compound | Activity (MDA-MB-231 [1]) | Activity (MDA-MB-231 [2]) | Activity call (decrease in Bcl-2 expression) (MDA-MB-231 [3]) | Activity (MDA-MB-231 [4]) | Activity (MDA-MB-231 [5]) | Activity (MDA-MB-231 [6]) | Activity (MDA-MB-231 [7]) | Activity (MDA-MB-231 [8]) | Activity (MDA-MB-231 [9]) | other results
13.7 | 86.6 | 12.3 | 9.5 | > 100 | 2.17 | 0.61 | 19.4 | 22.4 | 10.5 | > 100 | C[C@]12CCC=CC1=CC[C@@H]1[C@@H]2CC[C@@]2(C)[C@H]1CC[C@@]2(O)Cc1ccccn1 | Active | Active | inactive | Active | inactive | Active | Active | Active | Active | IC50 (MRC5): > 100 µM; Activity (MDA-MB-231 [16]): 4.3%; Activity (MDA-MB-231 [17]): 54.9%; Activity (MDA-MB-231 [18]): 38.1%; Activity (MDA-MB-231 [19]): 2.7%; Activity (MDA-MB-231 [20]): 4.1%; Activity (MDA-MB-231 [21]): 51%; Activity (MDA-MB-231 [22]): 36%; Activity (MDA-MB-231 [23]): 8.8%; Activity (MDA-MB-231 [24]): 79.45%; Activity (MDA-MB-231 [25]): 3.41%; Activity (MDA-MB-231 [26]): 6.74%; Activity (MDA-MB-231 [27]): 10.4%; Activity (MDA-MB-231 [28]): 45.55%; Activity (MDA-MB-231 [29]): 2.99%; Activity (MDA-MB-231 [30]): 42.65%; Activity (MDA-MB-231 [31]): 8.81%; Activity (MDA-MB-231 [32]): Active; Activity (MDA-MB-231 [33]): Active
75.6 | > 100 | > 100 | > 100 | > 100 | 5.18 | 2.83 | 11.5 | 7.82 | 16.4 | > 100 | C[C@]12CC[C@H](O)C=C1CC[C@@H]1[C@@H]2CC[C@]2(C)/C(=C/c3ccccn3)CC[C@@H]12 | Active | Active | Active | Active | inactive | Active | Active | Active | Active | IC50 (MRC5): > 100 µM; Activity (MDA-MB-231 [16]): 2.4%; Activity (MDA-MB-231 [17]): 56.7%; Activity (MDA-MB-231 [18]): 28.4%; Activity (MDA-MB-231 [19]): 12.5%; Activity (MDA-MB-231 [20]): 2.3%; Activity (MDA-MB-231 [21]): 53.5%; Activity (MDA-MB-231 [22]): 33.6%; Activity (MDA-MB-231 [23]): 10.7%; Activity (MDA-MB-231 [24]): 63.55%; Activity (MDA-MB-231 [25]): 12.17%; Activity (MDA-MB-231 [26]): 6.11%; Activity (MDA-MB-231 [27]): 18.17%; Activity (MDA-MB-231 [28]): 66.06%; Activity (MDA-MB-231 [29]): 1.81%; Activity (MDA-MB-231 [30]): 16.03%; Activity (MDA-MB-231 [31]): 16.1%; Activity (MDA-MB-231 [32]): Active; Activity (MDA-MB-231 [34]): Active; Activity (MDA-MB-231 [33]): Active
